Assay results from patent publication US20170035793A1, “Use of P2X Purinergic Receptor Agonists to Enhance Insulin Secretion In Pancreatic Beta Cells” (priority 2010, published 2017).
Entries after “also recorded” stand apart in the source; their conditions may differ.

What was measured:
Type in all cases: cell-based
[1] = tested on: human islets; assay: Dynamic insulin secretion from perifused human islets kept at constant glucose; conditions: for insulin secretory response to the agonist at low glucose: 3 mM glucose, ATP 100 μM (or concentration series), ATPγS 50 μM, BzATP 50 μM, α,β-methylene ATP 50 μM, ADP 100 μM, UTP 100 μM, adenosine 100 μM; for effect on basal insulin secretion: low glucose (3 mM), ARL67156 50 μM, apyrase 5 U/mL
Description: (§1) Islet Isolation. Islets were isolated as previously described (57). Monkey islets were isolated from cynomolgus monkeys (Macacca fascicularis) >4 years of age at the time of pancreas procurement, as previously described (58). Pig pancreata were procured from the local slaughterhouse. Mice (C57BL/6) and rat (Lewis rat; Harlan) islets were isolated using a rodent-islet isolation technique (59). All animal protocols were approved by the University of Miami Care and Use Committee. Human pancreatic islets were obtained from the Human Islet Cell Processing Facility at the Diabetes Research Institute, University of Miami Miller School of Medicine or from the Islet Cell Resource basic science islet distribution program, Islet Cell Resource Centers (ICRs) Consortium, Division of Clinical Research, National Center for Research Resources, National Institutes of Health. Human islets were dissociated into single cells using enzyme-free cell dissociation buffer (Invitrogen). Islets and islets cells from Q:1 all species were cultured identically (37° C. and 5% CO2) inCMRL Q:2 medium-1066 (Invitrogen), niacinamide (10 mM; Sigma), ITS (BD Biosciences), Zn2SO4 (15 μM, Sigma), GlutaMAX (2 mM; Invitrogen), Hepes (25 mM; Sigma), FBS (10%; Invitrogen), and penicillinstreptomycin (100 IU/mL-100 μg/mL; Invitrogen).
(§2) Insulin and Glucagon Secretion. Insulin and glucagon secretion were measured as previously described (8, 36). A high-capacity automated perifusion system was developed to dynamically measure hormone secretion from pancreatic islets. A low pulsatility peristaltic pump pushed Hepes-buffered solution (125 mM NaCl, 5.9 mM KCl, 2.56 mM CaCl2, 1 mM MgCl2, 25 mM Hepes, and 0.1% BSA, pH 7.4 at a perifusion rate of 100 μL/min) through a column containing 100 pancreatic islets immobilized in Bio-Gel P-4 Gel (BioRad). Except when otherwise stated, glucose concentration was adjusted to 3 mM for all experiments. Stimuli were applied with the perifusion buffer. The perifusate was collected in an automatic fraction collector designed for a 96-well plate format. The columns containing the islets and the perifusion solutions were kept at 37° C., and the perifusate in the collecting plate was kept at <4° C. Perifusates were collected every 1 min. Hormone release in the perifusate was determined with the human or mouse Endocrine LINCOplex Kit following manufacturer's instructions (Lincoresearch). Human islet preparations varied considerably in their quality. Thus, the magnitudes of the responses to different stimuli were compared with the same recording or using recordings from the same preparation.

[2] = tested on: human alpha cells; assay: [Ca2+]i imaging (Fura-2) of kainate-responsive human islet cells; conditions: agonist 50 μM; for fraction of kainate-responsive cells that responded with rapid [Ca2+]i increases: human islet cells responding to kainate (100 μM)
[3] = tested on: human β cells; assay: [Ca2+]i imaging (Fura-2) of glucose-responsive human islet cells; conditions: for [Ca2+]i response of β cells to the agonist: human β cells identified by response to high glucose (11 or 16 mM), recorded at 3 mM glucose, BzATP 50 μM; for effect on [Ca2+]i responses induced by ATPγS: iso-PPADS, nifedipine 10 μM
Description: as §1
[Ca^2+]i; Imaging. [Ca^2+]i imaging was performed as previously described (8, 36). Dispersed islet cells were immersed in Hepes-buffered solution (125 mMNaCl, 5.9 mMKCl, 2.56 mMCaCl2, 1 mMMgCl2, 25 mMHepes, and 0.1% BSA, pH7.4). Glucose was added to give a final concentration of 3 mM. Islets or dispersed islet cells were incubated in Fura-2 AM (2 μM; 1 h) and placed in a closed small volume imaging chamber (Warner Instruments). Stimuli were applied with the bathing solution. Islets loaded with Fura-2 were excited alternatively at 340 and 380 nm with a monochromator light source (Cairn Research Optoscan Monochromator; Cairn Research Ltd). Images were acquired with a Hamamatsu camera (Hamamatsu) attached to a Zeiss Axiovert 200 microscope (Carl Zeiss). Changes in the 340/380 fluorescence emission ratio over time were analyzed in individual islets and dispersed cells using Kinetic Imaging AQM Advance software (Kinetic Imaging). Peak changes in the fluorescence ratio constituted the response amplitude. Beta cells were distinguished from other endocrine cells by their [Ca^2+]i, responses to high glucose concentrations, and alpha cells were identified by their [Ca^2+]i responses to kainate (glutamate receptor agonist) (8, 36).

[4] = tested on: human islets; assay: Glucose-induced insulin secretion (glucose raised from 3 mM to 11 mM) in perifused human islets; conditions: glucose 3 mM to 11 mM; for effect on glucose-induced insulin secretion: MRS2159 10 μM, Brilliant Blue G 1 μM, KN-62 1 μM, reactive blue 2 50 μM, MRS2179 10 μM, CGS15943 10 μM, adenosine 100 μM; for reduction of glucose-induced insulin release: apyrase 5 U/mL, suramin 50 μM or 100 μM, iso-PPADS 50 μM, oATP 500 μM
Description: as §1, §2

[5] = tested on: human islets; assay: ATP-induced (or α,β meATP-induced) insulin secretion in human islets with antagonists or blockers; conditions: ATP 10 μM; for effect on insulin secretion induced by ATP: suramin 100 μM, Cd2+ 100 μM, nifedipine 10 μM, thapsigargin 1 μM
Description: as §1, §2

[6] = human β cells, ATPγS 50 μM, thapsigargin 1 μM

## 2′(3′)-O-(4-Benzoylbenzoyl)ATP [BzATP]
[1]
  insulin secretory response to the agonist at low glucose: elicited insulin secretory responses; also recorded: elicited strong insulin responses
[2]
  fraction of kainate-responsive cells that responded with rapid [Ca2+]i increases: 30%
[3]; ATPγS 50 μM
  [Ca2+]i response of β cells to the agonist: rapid [Ca^2+]i increases; also recorded: elicited repeatable [Ca^2+]i responses

## Nc1ncnc2c1ncn2[C@@H]1O[C@H](COP(=O)(O)OP(=O)(O)O)[C@@H](O)[C@H]1O [ADP]
[1]
  insulin secretory response to the agonist at low glucose: elicited insulin secretory responses; also recorded: increase insulin release

## CCN(CC)c1ncnc2c1ncn2[C@@H]1O[C@H](COP(=O)(O)OP(=O)(O)C(Br)(Br)P(=O)(O)O)[C@@H](O)[C@H]1O [ARL67156]
[4]
  effect on glucose-induced insulin secretion: did not amplify the β-cell response
[1]
  effect on basal insulin secretion: increased basal insulin secretion

## Nc1ncnc2c1ncn2[C@@H]1O[C@H](COP(=O)(O)OP(=O)(O)OP(O)(O)=S)[C@@H](O)[C@H]1O [ATPγS]
[1]
  insulin secretory response to the agonist at low glucose: elicited insulin secretory responses; also recorded: elicited strong insulin responses
[2]; human alpha cells identified by kainate (100 μM), 3 mM glucose
  [Ca2+]i response of alpha cells to the agonist: did not respond to ATP S
[2]
  fraction of kainate-responsive cells that responded with rapid [Ca2+]i increases: 30%
[3]; ATPγS 50 μM
  [Ca2+]i response of β cells to the agonist: rapid [Ca^2+]i increases
[3]; ATPγS 50 μM, listed as ATP S
  [Ca2+]i response of β cells to the agonist: induced [Ca^2+]i responses
[3]; human β cells, nominal 0 Ca2+ (+1 mM EGTA), ATPγS 50 μM
  [Ca2+]i responses to the agonist in the nominal absence of extracellular Ca2+: reduced

## CCOc1ccc(Nc2ccc(/C(=C3C=C/C(=[N+](/CC)Cc4cccc(S(=O)(=O)[O-])c4)C=C/3C)c3ccc(N(CC)Cc4cccc(S(=O)(=O)[O-])c4)cc3C)cc2)cc1.[Na+] [Brilliant Blue G]
[4]
  effect on glucose-induced insulin secretion: not significantly reduced

## CN([C@@H](Cc1ccc(OS(=O)(=O)c2cccc3cnccc23)cc1)C(=O)N1CCN(c2ccccc2)CC1)S(=O)(=O)c1cccc2cnccc12 [KN-62]
[4]
  effect on glucose-induced insulin secretion: not significantly reduced

## Cc1nc(N=Nc2ccc(C(=O)O)cc2)c(COP(=O)(O)O)c(C=O)c1O [MRS2159]
[4]
  effect on glucose-induced insulin secretion: not significantly reduced

## CNc1ncnc2c1ncn2[C@H]1C[C@H](OP(=O)(O)O)[C@@H](COP(=O)(O)O)O1 [MRS2179]
[4]
  effect on glucose-induced insulin secretion: did not inhibit glucose induced insulin release

## O=c1ccn([C@@H]2O[C@H](COP(=O)(O)OP(=O)(O)OP(=O)(O)O)[C@@H](O)[C@H]2O)c(=O)[nH]1 [UTP]
[1]
  insulin secretory response to the agonist at low glucose: did not evoke strong insulin responses; also recorded: increase insulin release

## Nc1ncnc2c1ncn2[C@@H]1O[C@H](CO)[C@@H](O)[C@H]1O [adenosine]
[4]
  effect on glucose-induced insulin secretion: neither the P1 receptor antagonist CGS15943 (10 μM) nor adenosine (100 μM) altered glucose-induced insulin secretion
[1]
  insulin secretory response to the agonist at low glucose: did not evoke strong insulin responses
[1]; listed as Adenosine
  insulin secretory response to the agonist at low glucose: minor effect on insulin release

## Cc1nc(/N=N/c2cc(S(=O)(=O)O)ccc2S(=O)(=O)O)c(COP(=O)(O)O)c(C=O)c1O [iso-PPADS]
[4]
  reduction of glucose-induced insulin release: 30%
[3]; human β cells
  block of [Ca2+]i responses to ATP: 80%
[3]; [6]
  effect on [Ca2+]i responses induced by ATPγS: reduced [Ca^2+]i responses
[5]; iso-PPADS 50 μM, read-out: inhibition of insulin responses to ATP
  inhibition at 50 µM: ~95%
[5]; iso-PPADS 50 μM
  effect on insulin secretion induced by ATP: inhibited

## Nc1ncnc2c1ncn2[C@@H](C=O)O[C@@H](C=O)COP(=O)(O)OP(=O)(O)OP(=O)(O)O [oATP, oxidized ATP]
[4]
  reduction of glucose-induced insulin release: 65%

## Nc1c(S(=O)(=O)O)cc(Nc2ccc(Nc3nc(Cl)nc(Nc4cccc(S(=O)(=O)O)c4)n3)c(S(=O)(=O)O)c2)c2c1C(=O)c1ccccc1C2=O [reactive blue 2]
[4]
  effect on glucose-induced insulin secretion: did not inhibit glucose induced insulin release

## Cc1ccc(C(=O)Nc2ccc(S(=O)(=O)O)c3cc(S(=O)(=O)O)cc(S(=O)(=O)O)c23)cc1NC(=O)c1cccc(NC(=O)Nc2cccc(C(=O)Nc3cc(C(=O)Nc4ccc(S(=O)(=O)O)c5cc(S(=O)(=O)O)cc(S(=O)(=O)O)c45)ccc3C)c2)c1 [suramin]
[4]
  reduction of glucose-induced insulin release: 40%
[5]; iso-PPADS 50 μM
  effect on insulin secretion induced by ATP: inhibited

## C/C=C(/C)C(=O)O[C@H]1C(C)=C2[C@H]([C@@H]1OC(=O)CCCCCCC)[C@@](C)(OC(C)=O)C[C@H](OC(=O)CCC)[C@@]1(O)[C@H]2OC(=O)[C@@]1(C)O [thapsigargin]
[3]; [6]
  effect on [Ca2+]i responses induced by ATPγS: not decreased
[3]; human β cells, thapsigargin 1 μM, nifedipine
  effect on [Ca2+]i responses to ATP: did not affect [Ca^2+]i responses to ATP
[5]; iso-PPADS 50 μM
  effect on insulin secretion induced by ATP: had no effect on insulin responses to ATP
[5]; iso-PPADS 50 μM, listed as Thapsigargin
  effect on insulin secretion induced by ATP: did not affect insulin responses

## Nc1ncnc2c1ncn2[C@@H]1O[C@H](COP(=O)(O)CP(=O)(O)OP(=O)(O)O)[C@@H](O)[C@H]1O [α,β-methylene ATP]
[1]
  insulin secretory response to the agonist at low glucose: elicited strong insulin responses
[3]; ATPγS 50 μM
  [Ca2+]i response of β cells to the agonist: elicited repeatable [Ca^2+]i responses
[5]; nominal 0 Ca2+ (+1 mM EGTA), α,β meATP 100 μM
  insulin responses to the agonist in the nominal absence of extracellular Ca2+: strongly diminished

## adenosine deaminase
[4]; ADA 1 U/mL added to apyrase 5 U/mL
  effect of degrading adenosine on the apyrase effect on glucose-stimulated insulin secretion: did not change the effect of apyrase on glucose-stimulated insulin secretion

## apyrase
[4]
  reduction of glucose-induced insulin release: ~15%
[1]
  effect on basal insulin secretion: did not reduce basal insulin secretion
[1]; listed as Apyrase
  effect on basal insulin secretion: did not change basal insulin secretion
